According to PubChem BioAssay (NCI):
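Interpolation was linear, between the two tested concentrations surrounding the appropriate level; five concentrations were tested over 48 hours in 96-well plates. At the TGI there is no net growth.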

Assays:
Test in all cases: DTP human tumour cell line panel, 48 h
COLO 205 colon = test system: COLO 205 colon
EKVX NSCLC = test system: EKVX NSCLC
HCC-2998 colon = test system: HCC-2998 colon
HOP-62 NSCLC = test system: HOP-62 NSCLC
IGROV1 ovarian = test system: IGROV1 ovarian
OVCAR-3 ovarian = test system: OVCAR-3 ovarian
SK-OV-3 ovarian = test system: SK-OV-3 ovarian
A498 renal = test system: A498 renal
T-47D breast = test system: T-47D breast
DU-145 prostate = test system: DU-145 prostate
MDA-MB-435 = test system: MDA-MB-435

Compound | TGI (COLO 205 colon) | TGI (EKVX NSCLC) | TGI (HCC-2998 colon) | TGI (HOP-62 NSCLC) | TGI (IGROV1 ovarian) | TGI (OVCAR-3 ovarian) | TGI (SK-OV-3 ovarian) | TGI (A498 renal) | TGI (T-47D breast) | TGI (DU-145 prostate) | TGI (MDA-MB-435)
COc1c2c(c3c(c1C1OC(C)[C@@H](C)O1)CC(C)(C)O3)C(=O)c1ccccc1C2=O (stereo not given in full) | > 100 µM | > 100 µM | > 100 µM | > 100 µM | > 100 µM | > 100 µM | > 100 µM | – | – | – | –
CO/C(=N\N=C\c1cc(OC)ccc1OC)c1ccncc1 | > 10 µM | – | > 10 µM | > 10 µM | > 10 µM | – | > 10 µM | > 10 µM | > 10 µM | – | –
CCN(CC)CCNC(=O)c1ccccc1NC(=O)C(=O)Nc1ccccc1C(=O)NCCN(CC)CC | 35.8 µM | > 100 µM | > 100 µM | > 100 µM | > 100 µM | > 100 µM | > 100 µM | > 100 µM | – | – | –
CCC(C)[C@@H](NCc1ccccc1)[C@H](OCc1ccccc1)[C@@H]1COC(C)(C)O1 (stereo not given in full) | 36.6 µM | 42.7 µM | – | > 100 µM | 37.4 µM | > 100 µM | > 100 µM | – | – | 68 µM | > 100 µM
c1ccc(C2=NC3(CCCCC3)N(c3nc4ccccc4s3)N2)nc1 | 41.4 µM | > 100 µM | – | > 100 µM | > 100 µM | 51.2 µM | > 100 µM | > 100 µM | 49.6 µM | > 100 µM | 63.6 µM
Cc1nc2c(=S)[nH]ncc2[nH]1 | > 100 µM | > 100 µM | > 100 µM | > 100 µM | > 100 µM | > 100 µM | > 100 µM | > 100 µM | > 100 µM | – | > 100 µM
O=C(CP(c1ccccc1)c1ccccc1)c1cccc(C(=O)CP(c2ccccc2)c2ccccc2)c1 | > 100 µM | > 100 µM | > 100 µM | > 100 µM | > 100 µM | – | > 100 µM | – | 94.8 µM | > 100 µM | > 100 µM
CC(C)(C)OC(=O)CN1CCNCCNCC1 | > 100 µM | > 100 µM | – | > 100 µM | > 100 µM | > 100 µM | > 100 µM | > 100 µM | > 100 µM | > 100 µM | > 100 µM
CC(=O)OCC1OC(Nc2[nH]c(=O)n(C)c(=O)c2-c2csc(N)n2)C(OC(C)=O)C(OC(C)=O)C1OC(C)=O (stereo not given) | > 100 µM | – | – | > 100 µM | > 100 µM | > 100 µM | > 100 µM | > 100 µM | – | – | –
C1=C(c2ccccc2)CN(c2ccccc2)OC1 | > 100 µM | > 100 µM | > 100 µM | > 100 µM | > 100 µM | > 100 µM | > 100 µM | – | – | – | –
Cc1ccc(C)n1-c1ccccc1C1SCCCS1 | > 100 µM | > 100 µM | > 100 µM | > 100 µM | > 100 µM | > 100 µM | > 100 µM | > 100 µM | – | > 100 µM | > 100 µM
COc1ccc(/C=C2\CN(C)Cc3c2nc(N)nc3-c2ccc(OC)cc2)cc1 | > 100 µM | > 100 µM | > 100 µM | > 100 µM | > 100 µM | > 100 µM | > 100 µM | > 100 µM | – | – | –
